Reference: PubChem BioAssay (NCI)
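Growth conditions: 96-well plates. Treatment: test compound, 48 hours, 5 concentrations. Analysis: linear interpolation between bracketing concentrations; unreached endpoints set to highest concentration. TGI marks complete inhibition of growth.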

Key:
Assay in all cases: growth of human tumour cells (NCI), 48 h
[1] = system: 786-0 renal
[2] = system: A498 renal
[3] = system: A549 NSCLC
[4] = system: ACHN renal
[5] = system: CAKI-1 renal
[6] = system: CCRF-CEM leukemia
[7] = system: COLO 205 colon
[8] = system: DLD-1 colon
[9] = system: DMS 114 small cell lung
[10] = system: DMS 273 small cell lung
[11] = system: EKVX NSCLC
[12] = system: HCC-2998 colon
[13] = system: HL-60(TB) leukemia
[14] = system: HOP-62 NSCLC
[15] = system: HOP-92 NSCLC
[16] = system: HT29 colon
[17] = system: IGROV1 ovarian
[18] = system: K-562 leukemia
[19] = system: KM12 colon
[20] = system: KM20L2 colon
[21] = system: LOX IMVI melanoma
[22] = system: LXFL 529 NSCLC
[23] = system: M14 melanoma
[24] = system: M19-MEL melanoma
[25] = system: MALME-3M melanoma
[26] = system: MOLT-4 leukemia
[27] = system: NCI-H226 lung
[28] = system: NCI-H23 lung
[29] = system: NCI-H460 lung
[30] = system: NCI-H522 lung
[31] = system: OVCAR-3 ovarian
[32] = system: OVCAR-4 ovarian
[33] = system: OVCAR-5 ovarian
[34] = system: OVCAR-8 ovarian
[35] = system: RPMI-8226 leukemia
[36] = system: RXF 393 renal
[37] = system: SF-268 CNS
[38] = system: SF-295 CNS
[39] = system: SF-539 CNS
[40] = system: SK-MEL-2 melanoma
[41] = system: SK-MEL-28 melanoma
[42] = system: SK-MEL-5 melanoma
[43] = system: SK-OV-3 ovarian
[44] = system: SN12C renal
[45] = system: SNB-19 CNS
[46] = system: SNB-75 CNS
[47] = system: SNB-78 CNS
[48] = system: SW-620 colon
[49] = system: TK-10 renal
[50] = system: U251 CNS
[51] = system: UACC-257 melanoma
[52] = system: UO-31 renal
[53] = system: XF 498 CNS

Measured: TGI

CCOc1ccccc1NC(=O)C1=C(C)NC(C)=C(C(=O)Nc2ccccc2OCC)C1c1cccc([N+](=O)[O-])c1
41.3 µM: [15]
89.3 µM: [46]
> 100 µM: all other assays above
